The values below come from the NIST ThermoML archive (doi:10.1016/j.jct.2004.06.009).

± gives the expanded uncertainty stated by the source.

For `CCC12CC3CC(CC(C3)C1)C2` [1-ethyladamantane], for the setting “Crystal”, the Triple point temperature amounted to 225.56 ± 0.16 K.
`CC12CC3CC(C1)CC(C)(C3)C2` [1,3-dimethyladamantane]: the Triple point temperature is, setting by setting: (Crystal 1) 247.79 ± 0.16 K; (Crystal 2) 223.38 ± 0.16 K.
